System: HCT116 colorectal cancer cells
Experiment: Cisplatin sensitization assay (96 h cell viability MTS);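 also: compound concentration needed to lower the Cisplatin-alone IC50 by a set fold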
Type: cell-based
Details: 96 h MTS, compound plus Cisplatin
Outline: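 Cisplatin and compound are dosed at the same time, both serially diluted 2-fold from 10 μM final across a full matrix. Plates sit at 37° C in 5% CO2 for 96 h before MTS addition.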

Row | Compound | Cisplatin Sensitization Assay
1 | N#CC1CN(C(=O)C2CCN(c3c(F)cncc3NC(=O)c3c(N)nn4cc(F)cnc34)CC2)C1 [I-G-76, 2-amino-N-(4-(4-(3-cyanoazetidine-1-carbonyl)piperidin-1-yl)-5-fluoropyridin-3-yl)-6-fluoropyrazolo[1,5-a]pyrimidine-3-carboxamide] | +++ (Compounds with a Cisplatin sensitization value of <0.02 μM are marked with “+++.”)
2 | Nc1nn2cc(F)cnc2c1C(=O)Nc1cnccc1N1CCC(C(=O)N2CCC2)CC1 [I-G-77, 2-amino-N-(4-(4-(azetidine-1-carbonyl)piperidin-1-yl)pyridin-3-yl)-6-fluoropyrazolo[1,5-a]pyrimidine-3-carboxamide] | +++ (Compounds with a Cisplatin sensitization value of <0.02 μM are marked with “+++.”)
3 | COC1CN(C(=O)C2CCN(c3ccncc3NC(=O)c3c(N)nn4cc(F)cnc34)CC2)C1 [I-G-78, 2-amino-6-fluoro-N-(4-(4-(3-methoxyazetidine-1-carbonyl)piperidin-1-yl)pyridin-3-yl)pyrazolo[1,5-a]pyrimidine-3-carboxamide] | +++ (Compounds with a Cisplatin sensitization value of <0.02 μM are marked with “+++.”)
4 | COC1(C)CN(C(=O)C2CCN(c3ccncc3NC(=O)c3c(N)nn4cc(F)cnc34)CC2)C1 [I-G-79, 2-amino-6-fluoro-N-(4-(4-(3-methoxy-3-methylazetidine-1-carbonyl)piperidin-1-yl)pyridin-3-yl)pyrazolo[1,5-a]pyrimidine-3-carboxamide] | +++ (Compounds with a Cisplatin sensitization value of <0.02 μM are marked with “+++.”)
5 | Nc1nn2cc(F)cnc2c1C(=O)Nc1cnccc1N1CCC(C(=O)N2CC(F)(F)C2)CC1 [I-G-80, 2-amino-N-(4-(4-(3,3-difluoroazetidine-1-carbonyl)piperidin-1-yl)pyridin-3-yl)-6-fluoropyrazolo[1,5-a]pyrimidine-3-carboxamide] | +++ (Compounds with a Cisplatin sensitization value of <0.02 μM are marked with “+++.”)
6 | N#CC1CN(C(=O)C2CCN(c3ccncc3NC(=O)c3c(N)nn4cc(F)cnc34)CC2)C1 [I-G-81, 2-amino-N-(4-(4-(3-cyanoazetidine-1-carbonyl)piperidin-1-yl)pyridin-3-yl)-6-fluoropyrazolo[1,5-a]pyrimidine-3-carboxamide] | +++ (Compounds with a Cisplatin sensitization value of <0.02 μM are marked with “+++.”)
7 | Nc1nn2cc(F)cnc2c1C(=O)Nc1cnccc1N1CCC(C(=O)N2CC(F)C2)CC1 [I-G-82, 2-amino-6-fluoro-N-(4-(4-(3-fluoroazetidine-1-carbonyl)piperidin-1-yl)pyridin-3-yl)pyrazolo[1,5-a]pyrimidine-3-carboxamide] | +++ (Compounds with a Cisplatin sensitization value of <0.02 μM are marked with “+++.”)
8 | Nc1nn2cc(F)cnc2c1C(=O)Nc1cnccc1N1CCC(C(=O)N2CCCC2)CC1 [I-G-83, 2-amino-6-fluoro-N-(4-(4-(pyrrolidine-1-carbonyl)piperidin-1-yl)pyridin-3-yl)pyrazolo[1,5-a]pyrimidine-3-carboxamide] | +++ (Compounds with a Cisplatin sensitization value of <0.02 μM are marked with “+++.”)
9 | Nc1nn2cc(F)cnc2c1C(=O)Nc1cnccc1N1CCC(C(=O)N2CCC3(COC3)C2)CC1 [I-G-84, N-(4-(4-(2-oxa-6-azaspiro[3.4]octane-6-carbonyl)piperidin-1-yl)pyridin-3-yl)-2-amino-6-fluoropyrazolo[1,5-a]pyrimidine-3-carboxamide] | +++ (Compounds with a Cisplatin sensitization value of <0.02 μM are marked with “+++.”)
10 | Nc1nn2cc(F)cnc2c1C(=O)Nc1cnccc1N1CCC(C(=O)N2CCOCC2)CC1 [I-G-85, 2-amino-6-fluoro-N-(4-(4-(morpholine-4-carbonyl)piperidin-1-yl)pyridin-3-yl)pyrazolo[1,5-a]pyrimidine-3-carboxamide] | +++ (Compounds with a Cisplatin sensitization value of <0.02 μM are marked with “+++.”)
11 | CS(=O)(=O)C1CN(C(=O)C2CCN(c3c(F)cncc3NC(=O)c3c(N)nn4cc(F)cnc34)CC2)C1 [I-G-86, 2-amino-6-fluoro-N-(5-fluoro-4-(4-(3-(methylsulfonyl)azetidine-1-carbonyl)piperidin-1-yl)pyridin-3-yl)pyrazolo[1,5-a]pyrimidine-3-carboxamide] | +++ (Compounds with a Cisplatin sensitization value of <0.02 μM are marked with “+++.”)
12 | Nc1nn2cc(Cl)cnc2c1C(=O)Nc1cncc(F)c1N1CCC(C(=O)N2CCN3CCC2CC3)CC1 [I-G-87, N-(4-(4-(1,4-diazabicyclo[3.2.2]nonane-4-carbonyl)piperidin-1-yl)-5-fluoropyridin-3-yl)-2-amino-6-chloropyrazolo[1,5-a]pyrimidine-3-carboxamide] | +++ (Compounds with a Cisplatin sensitization value of <0.02 μM are marked with “+++.”)
13 | Nc1nn2cc(F)cnc2c1C(=O)Nc1cnccc1N1CCC(C(=O)N2CC3(COC3)C2)CC1 [I-G-88, N-(4-(4-(2-oxa-6-azaspiro[3.3]heptane-6-carbonyl)piperidin-1-yl)pyridin-3-yl)-2-amino-6-fluoropyrazolo[1,5-a]pyrimidine-3-carboxamide] | +++ (Compounds with a Cisplatin sensitization value of <0.02 μM are marked with “+++.”)
14 | CS(=O)(=O)C1CN(C(=O)C2CCN(c3ccncc3NC(=O)c3c(N)nn4cc(F)cnc34)CC2)C1 [I-G-89, 2-amino-6-fluoro-N-(4-(4-(3-(methylsulfonyl)azetidine-1-carbonyl)piperidin-1-yl)pyridin-3-yl)pyrazolo[1,5-a]pyrimidine-3-carboxamide] | + (Compounds with a Cisplatin sensitization value >0.2 μM but <5 μM are marked with “+.”)
15 | Nc1nn2cc(F)cnc2c1C(=O)Nc1cnccc1N1CCC(C(=O)N2CC3(CCO3)C2)CC1 [I-G-90, N-(4-(4-(1-oxa-6-azaspiro[3.3]heptane-6-carbonyl)piperidin-1-yl)pyridin-3-yl)-2-amino-6-fluoropyrazolo[1,5-a]pyrimidine-3-carboxamide] | +++ (Compounds with a Cisplatin sensitization value of <0.02 μM are marked with “+++.”)
16 | CCOC1CN(C(=O)C2CCN(c3ccncc3NC(=O)c3c(N)nn4cc(F)cnc34)CC2)C1 [I-G-91, 2-amino-N-(4-(4-(3-ethoxyazetidine-1-carbonyl)piperidin-1-yl)pyridin-3-yl)-6-fluoropyrazolo[1,5-a]pyrimidine-3-carboxamide] | +++ (Compounds with a Cisplatin sensitization value of <0.02 μM are marked with “+++.”)
17 | CC1(N2CCN(C(=O)C3CCN(c4c(F)cncc4NC(=O)c4c(N)nn5cc(F)cnc45)CC3)CC2)COC1 [I-G-92, 2-amino-6-fluoro-N-(5-fluoro-4-(4-(4-(3-methyloxetan-3-yl)piperazine-1-carbonyl)piperidin-1-yl)pyridin-3-yl)pyrazolo[1,5-a]pyrimidine-3-carboxamide] | +++ (Compounds with a Cisplatin sensitization value of <0.02 μM are marked with “+++.”)

Source: patent publication US10787452B2 (Vertex Pharmaceuticals Incorporated, priority 2012, dated 2020)
